Key:
[1] = tested on: male Sprague-Dawley rats; assay: Animal Model (In Vivo) Assay For Platelet Aggregation Activity using arteriovenous shunts; set-up: species or system rat; conditions: oral; for Thrombus weight (newly formed thrombus wet weight): glycerol glucoside derivative 50, 100 mg/kg, aspirin 30 mg/kg x 4 times, 120 min after treatment, shunt 15 minutes, saline 12.9 mg
Experimental: Assays for platelet aggregation activity using arteriovenous shunts were carried out as provided in Umetsu et al., “Effect Of 1-Methyl-2-Mercapto-5(3-Pyridyl)-Imidazole (KC-6141), An Antiaggregation Compound, On Experimental Thrombosis In Rats” Thromb Haemostasis 39:74-83 (1978); and Tang et al., “Anti-Thrombotic Activity Of PDR, A Newly Synthesized L-Arg Derivative, On Three Thrombosis Models In Rats” Thrombosis Research 110:127-133 (2003). Briefly, male Sprague-Dawley rats weighing 320-380 g were used after overnight fasting. The rats were administered orally with: i) a negative control (isotonic saline): ii) a glycerol glucoside derivative (50, 100 mg/kg); and iii) a positive control compound, aspirin (30 mg/kg x 4 times). A 75 min period occurred between each dose to allow the return of homeostasis.
The left jugular vein and the right carotid artery were cannulated with a 4 cm long polyethylene tube (o.d. 1 mm) while being infused with 50 μ/kg i.v. heparin. These catheters were then connected to the ends of a 15 cm long polyethylene tube (o.d. 2 mm) containing a 5 cm long suture silk thread (no. 4). Before the silk thread was placed in the polyethylene tube a pre-treatment wet weight was determined (i.e., a pre-thrombus formation weight). At 120 min after each drug treatment, the blood flow through the shunt was measured for 15 minutes. The silk thread, now containing newly formed thrombi, was gently removed, and a post-treatment wet weight was measured immediately. The newly formed thrombus wet weight was determined by subtracting the pre-treatment silk wet weight from the post-treatment silk wet weight. Thrombus weight for saline was 12.9 mg, for BH-2 (Regaloside C (2)) was 8.8 mg, and for aspirin was 7.1 mg (see FIG. 12).
The rate of thrombosis inhibition was calculated with the equation as follows: % Thrombosis inhibition=(A−A1)/A×100%
Where A was the newly formed thrombus wet weight of the control group (i.e., Saline), and A1 was the newly formed thrombus wet weight of the test derivative or positive control compound (i.e., aspirin).

[2] = tested on: Rat PRP; assay: Assay of in Vitro Antiplatelet Aggregation (turbidimetry, rat PRP stimulated with ADP and collagen); format: cell-based; conditions: maximal aggregation induced by ADP and collagen
Experimental: Platelet aggregation was determined using methods and minor variations as described in Choo et al., Biol. Pharm. Bull. 25(10) 1328-1332 (2002) and Born et al., J. Physiol., 168, 178-195 (1963). For example, blood from rats was collected by cardiac puncture into a plastic flask containing 2.2% sodium citrate (1:9 v/v). Platelet-rich plasma (PRP) was prepared by centrifugation of the blood at 120×g for 15 min and further centrifuged at 850×g for 10 min to prepare platelet poor plasma (PPP). The supernatant was pooled and centrifuged at 600×g for 15 min at room temperature. The platelet pellets were washed with modified Tyrode-HEPES buffer (129 mM NaCl, 2.8 mM KCl, 8.9 mM NaHCO3, 0.8 mM MgCl2, 0.8 mM KH2PO4, 2 mM EGTA, 5.6 mM glucose, 10 mM HEPES, 0.35% BSA, pH 7.4) and centrifuged at 600×g for 15 min. Then platelet pellets were gently resuspended in Tyrode-HEPES buffer and used in the experiments.
Platelet aggregation was measured by turbidimetry using a dual-channel Whole Lumini-lonized Calcium Aggregometer (Chrono-Log Co., Ltd., Havertown, Pa., U.S.A.). Rat PRP ([…]) was incubated at 37° C. for 2 min in the aggregometer with stirring at 1200 rpm and then stimulated with ADP and collagen. […] Changes in light transmission were recorded for 10 min after stimulation with these agents. […]

O=C(/C=C/c1ccc(O)c(O)c1)OC[C@@H](O)CO[C@@H]1O[C@H](CO)[C@@H](O)[C@H](O)[C@H]1O [BH-2, regaloside C]
% Thrombosis inhibition ([1]; (A-A1)/A x 100% versus saline control, rat arteriovenous shunt): 31.7%
Thrombus weight (newly formed thrombus wet weight) [1]: 8.8 mg

CC(=O)Oc1ccccc1C(=O)O [aspirin, acetylsalicylic acid, reference compound]
Thrombus weight (newly formed thrombus wet weight) [1]: 7.1 mg

O=C(O)c1cc(O)c2c(c1)C(=O)c1cccc(O)c1C2=O [rhein]
inhibition at 10 µM [2]: 1.8%
